Experimental data published in patent US7855292B2, “Sulfonamide compounds” (Janssen Pharmaceutica NV, priority 2004, dated 2010).

Key:
CCK-1 receptor = molecular target: T1, CCK-1 receptor (Homo sapiens, UniProt P32238); assay: CCK1 binding assay ([125I]-BH-CCK-8S displacement, CHO-K1 membranes); settings: membranes of CHO-K1 cells stably transfected with the CCK-1 receptor, 20 pM [125I]-BH-CCK-8S, 0.3 μM PD-134,308 present, 60 min at 21±3° C.; for Ki: read-out: CCK1 pKi (converted)
T1 construct: expressed in transfected cells; host or cells: CHO-K1
T1 sequence (P32238 1-428): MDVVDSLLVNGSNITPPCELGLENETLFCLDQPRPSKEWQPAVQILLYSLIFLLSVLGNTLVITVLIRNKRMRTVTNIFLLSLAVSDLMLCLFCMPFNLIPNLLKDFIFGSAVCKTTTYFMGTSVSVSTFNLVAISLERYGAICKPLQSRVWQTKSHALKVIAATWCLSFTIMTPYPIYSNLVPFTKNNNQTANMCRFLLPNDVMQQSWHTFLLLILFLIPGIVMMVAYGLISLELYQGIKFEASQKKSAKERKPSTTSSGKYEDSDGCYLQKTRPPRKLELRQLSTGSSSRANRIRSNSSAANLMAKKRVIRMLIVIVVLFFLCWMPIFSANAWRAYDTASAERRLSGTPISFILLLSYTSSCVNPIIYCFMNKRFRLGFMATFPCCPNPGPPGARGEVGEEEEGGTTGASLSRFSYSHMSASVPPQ
Outline: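 Membranes from CHO-K1 cells stably expressing CCK-1 incubated 1 h at 21±3° C with 20 pM [125I]-BH-CCK-8S in HEPES buffer pH 7.2 containing 0.3 μM PD-134,308 to block CCK-2. Bound radioactivity read by gamma counting after filtration. pKi derived via Cheng-Prusoff, with specific binding defined using 2-NAP.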

CCK2 receptor = molecular target: T2, CCK2 receptor (Homo sapiens, UniProt P32239); assay: CCK2 binding assay ([125I]-BH-CCK-8S displacement, HEKZFP membranes); settings: membranes of doxycycline-induced HEKZFP cells, 20 pM [125I]-BH-CCK-8S, 60 min at 21±3° C.; for Ki: read-out: CCK2 pKi (converted)
T2 construct: analyzed for ZFP expression as well as CCK2R induction upon addition of doxycycline to the culture medium; endogenous in cells
T2 sequence (P32239 1-447): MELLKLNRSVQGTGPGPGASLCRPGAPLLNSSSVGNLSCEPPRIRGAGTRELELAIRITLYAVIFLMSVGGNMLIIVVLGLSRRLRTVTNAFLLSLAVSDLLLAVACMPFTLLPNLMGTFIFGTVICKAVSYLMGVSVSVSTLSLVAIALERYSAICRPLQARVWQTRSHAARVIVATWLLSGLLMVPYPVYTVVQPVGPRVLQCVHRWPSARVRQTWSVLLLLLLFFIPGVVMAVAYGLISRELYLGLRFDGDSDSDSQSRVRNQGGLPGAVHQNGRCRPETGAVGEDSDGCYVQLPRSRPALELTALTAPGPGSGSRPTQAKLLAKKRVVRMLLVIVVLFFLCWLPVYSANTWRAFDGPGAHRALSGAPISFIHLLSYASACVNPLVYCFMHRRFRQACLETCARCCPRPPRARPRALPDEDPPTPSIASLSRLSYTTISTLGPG

SMILES	Ki (CCK-1 receptor) [nM]	Ki (CCK2 receptor) [nM]	CCK1 pKi (CCK-1 receptor)	CCK2 pKi (CCK2 receptor)
O=C(N[C@@H](Cc1ccc2ccccc2c1)C(=O)O)c1ccc(Cl)cc1NS(=O)(=O)c1cccc2nccnc12 [Example 9, (S)-2-[4-Chloro-2-(quinoxaline-5-sulfonylamino)-benzoylamino]-3-naphthalen-2-yl-propionic acid]	158	398		
O=C(N[C@H](Cc1cccc(Br)c1)C(=O)O)c1ccc(I)cc1NS(=O)(=O)c1cccc2nsnc12 [Example 115, (R)-2-[2-(Benzo[1,2,5]thiadiazole-4-sulfonylamino)-4-iodo-benzoylamino]-3-(3-bromo-phenyl)-propionic acid]	398	79.4		
CC(CNC(=O)c1ccc(Br)cc1NS(=O)(=O)c1cccc2nsnc12)c1ccc(Cl)c(Cl)c1 (stereo not shown) [Example 5, 2-(Benzo[1,2,5]thiadiazole-4-sulfonylamino)-4-bromo-N-[2-(3,4-dichloro-phenyl)-propyl]-benzamide]	15.8	316		
COC(=O)[C@H](Cc1ccc(Cl)c(Cl)c1)NC(=O)c1ccc(I)cc1NS(=O)(=O)c1cccc2nsnc12 [Example 154, (S)-2-[2-(Benzo[1,2,5]thiadiazole-4-sulfonylamino)-4-iodo-benzoylamino]-3-(3,4-dichloro-phenyl)-propionic acid methyl ester]	158	251		
O=C(N[C@@H](Cc1ccc(F)c(Br)c1)C(=O)O)c1ccc(Br)cc1NS(=O)(=O)c1cccc2nccnc12 [Example 158, (S)-3-(3-Bromo-4-fluoro-phenyl)-2-[4-bromo-2-(quinoxaline-5-sulfonylamino)-benzoylamino]-propionic acid]			6.5	8.3
O=C(O)C[C@H](Cc1ccc(Cl)c(Cl)c1)NC(=O)c1ccc(Cl)cc1NS(=O)(=O)c1cccc2nccnc12 [Example 64, (S)-3-[4-Chloro-2-(quinoxaline-5-sulfonylamino)-benzoylamino]-4-(3,4-dichloro-phenyl)-butyric acid]	1580	100		
O=C(NC(CO)Cc1ccc(Cl)cc1)c1ccc(Cl)cc1NS(=O)(=O)c1cccc2nsnc12 (racemic) [Example 52, (±)-2-(Benzo[1,2,5]thiadiazole-4-sulfonylamino)-4-chloro-N-[2-(4-chloro-phenyl)-1-hydroxymethyl-ethyl]-benzamide]	501	100		
O=C(N[C@@H](Cc1ccc(F)c(Br)c1)C(=O)O)c1ccc(I)cc1NS(=O)(=O)c1cccc2nccnc12 [Example 126, (S)-3-(3-Bromo-4-fluoro-phenyl)-2-[4-iodo-2-(quinoxaline-5-sulfonylamino)-benzoylamino]-propionic acid]	251	5.01		
O=C(N[C@@H](Cc1ccc(Cl)cc1)C(=O)O)c1ccc(I)cc1NS(=O)(=O)c1c(F)cccc1F [Example 34, 3-(4-Chloro-phenyl)-2-[2-(2,6-difluoro-benzenesulfonylamino)-4-iodo-benzoylamino]-propionic acid]	398	100		
O=C(N[C@@H](Cc1ccc(Cl)cc1)C(=O)O)c1cc(Cl)c(Cl)cc1NS(=O)(=O)c1cccc2nsnc12 [Example 68, (S)-2-[2-(Benzo[1,2,5]thiadiazole-4-sulfonylamino)-4,5-dichloro-benzoylamino]-3-(4-chloro-phenyl)-propionic acid]	316	31.6		
Cc1ccc(C(=O)NCC(C)c2ccc(Cl)cc2)c(NS(=O)(=O)c2cccc3nsnc23)c1 (racemic) [Example 54, (±)-2-(Benzo[1,2,5]thiadiazole-4-sulfonylamino)-N-[2-(4-chloro-phenyl)-propyl]-4-methyl-benzamide]	794	316		
CC(CNC(=O)c1ccc(Cl)cc1NS(=O)(=O)c1cccc2nsnc12)c1ccc(Cl)c(Cl)c1 (racemic) [Example 57, (±)-2-(Benzo[1,2,5]thiadiazole-4-sulfonylamino)-4-chloro-N-[2-(3,4-dichloro-phenyl)-propyl]-benzamide]	12.6	501		
C[C@@H](NC(=O)c1ccc(Cl)cc1NS(=O)(=O)c1cccc2nsnc12)[C@@H](O)c1cccc(Br)c1 [Example 108, 2-(Benzo[1,2,5]thiadiazole-4-sulfonylamino)-N-[(2S,1R)-2-(3-bromo-phenyl)-2-hydroxy-1-methyl-ethyl]-4-chloro-benzamide]			7.6	5.9
O=C(N[C@H](C(=O)O)C(c1ccc(Cl)cc1)c1ccc(Cl)cc1)c1ccc(I)cc1NS(=O)(=O)c1cccc2nsnc12 [Example 94, (S)-2-[2-(Benzo[1,2,5]thiadiazole-4-sulfonylamino)-4-iodo-benzoylamino]-3,3-bis-(4-chloro-phenyl)-propionic acid]	6310	1000		
O=C(NCCc1ccc(Cl)cc1Cl)c1ccccc1NS(=O)(=O)c1cccc2nsnc12 [Example 75, 2-(Benzo[1,2,5]thiadiazole-4-sulfonylamino)-N-[2-(2,4-dichloro-phenyl)-ethyl]-benzamide]	1000	3980		
O=C(N[C@@H](Cc1ccccc1)C(=O)O)c1ccc(C(F)(F)F)cc1NS(=O)(=O)c1cccc2nsnc12 [Example 26, 2-[2-(Benzo[1,2,5]thiadiazole-4-sulfonylamino)-4-trifluoromethyl-benzoylamino]-3-phenyl-propionic acid]	2510	39.8		
CC(CNC(=O)c1cc(Cl)c(Cl)cc1NS(=O)(=O)c1cccc2nsnc12)c1ccc(Cl)c(Cl)c1 (racemic) [Example 58, (±)-2-(Benzo[1,2,5]thiadiazole-4-sulfonylamino)-4,5-dichloro-N-[2-(3,4-dichloro-phenyl)-propyl]-benzamide]	31.6	501		
O=C(N[C@@H](Cc1ccc(Cl)c(Cl)c1)C(=O)O)c1ccc(Cl)cc1NS(=O)(=O)c1c(F)cccc1F [Example 119, (S)-2-[4-Chloro-2-(2,6-difluoro-benzenesulfonylamino)-benzoylamino]-3-(3,4-dichloro-phenyl)-propionic acid]	501	200		
O=C(N[C@@H](Cc1ccc(F)c(Br)c1)C(=O)O)c1ccc(Cl)cc1NS(=O)(=O)c1cccc2nsnc12 [Example 156, (S)-2-[2-(Benzo[1,2,5]thiadiazole-4-sulfonylamino)-4-chloro-benzoylamino]-3-(3-bromo-4-fluoro-phenyl)-propionic acid]			6.6	8.0
COC(=O)[C@H](Cc1ccc(F)c(Br)c1)NC(=O)c1cc(Cl)c(Cl)cc1NS(=O)(=O)c1cccc2nsnc12 [Example 150, (S)-2-[2-(Benzo[1,2,5]thiadiazole-4-sulfonylamino)-4,5-dichloro-benzoylamino]-3-(3-bromo-4-fluoro-phenyl)-propionic acid methyl ester]	79.4	251		
O=C(N[C@@H](Cc1ccc(Cl)c(Cl)c1)C(=O)N1CCCCC1)c1ccc(Cl)cc1NS(=O)(=O)c1cccc2nsnc12 [Example 140, (S)-2-(Benzo[1,2,5]thiadiazole-4-sulfonylamino)-4-chloro-N-[1-(3,4-dichloro-benzyl)-2-oxo-2-piperidin-1-yl-ethyl]-benzamide]	126	316		
O=C(N[C@@H](Cc1ccc(Cl)c(Br)c1)C(=O)O)c1cc(Cl)c(Cl)cc1NS(=O)(=O)c1cccc2nccnc12 [Example 148, (S)-3-(3-Bromo-4-chloro-phenyl)-2-[4,5-dichloro-2-(quinoxaline-5-sulfonylamino)-benzoylamino]-propionic acid]	251	63.1		
C[C@@H](NC(=O)c1ccc(Cl)cc1NS(=O)(=O)c1cccc2nsnc12)[C@@H](O)c1ccc(Cl)cc1 [Example 55, 2-(Benzo[1,2,5]thiadiazole-4-sulfonylamino)-4-chloro-N-[(1R,2S)-2-(4-chloro-phenyl)-2-hydroxy-1-methyl-ethyl]-benzamide]	39.8	1000		
